# Reference: PMC12362618, “Development of the First Small-Molecule Inhibitor Targeting Oncostatin M for Treatment of Breast Cancer” (Journal of Medicinal Chemistry, 2025)
# Values joined by “and” are separate entries in the source; they are usually repeats but may differ in a detail not shown here. Equal values may be shown once. “Also recorded” adds a separate entry of the source.
# Columns and labels:
# [1] = test system: OSM-induced pSTAT3 in T47D human breast cancer cells; test: pSTAT3 ELISA in T47D cells treated with OSM ± SMI; type: cell-based; settings: T47D; SMI 10 μM + OSM 10 ng/mL, 30 min; ELISA; relative to +OSM, no-treatment blank subtracted
# Method: To test the effect of SMIs in vitro, each SMI was incubated with OSM for a period of 1 h at 37 °C, and T47D and MDA-MB-231 human breast cancer cell lines were subsequently treated with OSM (10 ng/mL) and/or SMI-10 (10 μM) analogs for 30 min and measured for pSTAT3 levels via ELISA. The results of these assays are presented graphically in Figure and, for T47D cells, in Table as a percentage of reduction from +OSM alone. For phospho-STAT3 (pSTAT3) ELISAs, T47D MDA-MB-231, and MCF-7 cells were seeded in 12- or 24-well plates at 70–75% confluency and allowed to adhere overnight, after which cells were serum-starved with serum-free RPMI-1640 for 4 h. SMIs (10 μM in DMSO or serially diluted to specified concentrations from a 100 mM stock in DMSO) and human recombinant OSM (10 ng/mL; PeproTech; #300–10T-10UG) were incubated in serum-free RPMI-1640 medium for 1 h. After incubation, the SMI-10 analogs or SMI-10B13 and OSM were added to the serum-starved cells for 30 min. Immediately afterward, the cells were lysed using 1x PathScan Sandwich ELISA Lysis Buffer (Cell Signaling Technology; #7018S), collected, and stored at −20 °C. Lysates were analyzed for pSTAT3 levels using either the PathScan Phospho-STAT3 (Tyr705) Sandwich ELISA Antibody Pair kit (Cell Signaling Technology; #7146) or Human/Mouse Phospho-STAT3 (Y705) DuoSet IC ELISA (R&D Systems; DYC4607B), according to manufacture’s protocol. pSTAT3 expression was measured with absorbance at 450 nm and quantified by comparison relative to OSM-induced pSTAT3 levels. To calculate an IC50 for SMI-10B13, a standard curve was generated as described in the DuoSet IC ELISA datasheet to determine the concentration of pSTAT3.
# OSM = target: T1, OSM (Homo sapiens, UniProt P13725); test: Fluorescence quenching assay of SMI binding to OSM; settings: average of three independent replicates, errors at 95% confidence level, read-out: KD (OSM-SMI dissociation constant)
# T1 sequence (P13725 26-252): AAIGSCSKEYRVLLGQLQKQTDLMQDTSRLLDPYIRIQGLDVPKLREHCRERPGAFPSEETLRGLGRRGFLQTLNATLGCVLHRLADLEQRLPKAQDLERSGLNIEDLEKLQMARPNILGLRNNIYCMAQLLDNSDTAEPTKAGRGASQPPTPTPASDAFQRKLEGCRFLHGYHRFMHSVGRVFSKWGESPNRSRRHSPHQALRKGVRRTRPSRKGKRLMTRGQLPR
# Method: To perform fluorescence quenching assays, 2 mL of 1 μM OSM solution in polymethylmethacrylate cuvettes was prepared by dilution of a concentrated stock solution of recombinant OSM with buffer solution (100 mM sodium chloride, 50 mM sodium phosphate, 50 mM freshly added DTT, pH = 6.6). Cuvettes were titrated with 5 μL increments of a 1 mM small molecule stock solution in DMSO, with a cuvette titrated with an equivalent volume of DMSO as a control. […] In cases where little to no significant quenching was observed, the titration was supplemented with 2.5 μL increments of a 10 mM small molecule stock solution to increase the concentration delivered. The fluorescence intensity measurements were obtained on a Cary Eclipse spectrofluorometer equipped with a Xenon arc lamp. Fluorescence intensities were measured by exciting at 280 nm (4 nm slit width) and recording the emission from 345 to 355 nm with a photomultiplier tube voltage of 700 V, unless otherwise noted. Each titration point was normalized to OSM’s native fluorescence intensity, corrected by adding the decrease in fluorescence intensity caused by dilution with DMSO, and the average value of the three replicates for each point was plotted against concentration of small molecule delivered and fit to a modified Stern–Volmer function as described by Charlier and Plapp. Binding affinity (K D) values were obtained […] from the fitting routine. All curve-fitting analysis was performed in GraphPad Prism 8.0.
# [2] = test system: OSM-mediated signaling (pSTAT3, pAKT, pJNK, pERK) in T47D cells; test: Immunoblot of OSM-mediated signaling in T47D cells; type: cell-based, human; settings: SMI 10 μM, OSM 10 ng/mL, 30 min
# Method: For immunoblot analysis, T47D breast cancer cells were treated and collected in the same manner as described above for the ELISA preparation. After lysate collection, samples were run on a 10% SDS-PAGE gel and transferred to a nitrocellulose membrane via semidry transfer. Blots were rinsed with DI H2O and allowed to completely dry at room temperature before blocking with LiCor Intercept PBS Blocking Buffer (LiCor, Lincoln, NE; Cat# 927-90001) for 1 h. After blocking, primary antibodies (1:1000) suspended in blocking buffer supplemented with 0.1% Tween were added, shaken at room temperature for 1 h, and stored at 4 °C overnight. Membranes were then washed 6 times for 5 minutes each with 1X PBS supplemented with 0.5% Tween while shaking at room temperature, and secondary antibodies (1:15,000) were applied and incubated for 1 h. Afterward, membranes were washed as previously described above and imaged at 700 nm using the LiCor Odyssey CLx Imaging System. Quantification of immunoblots was performed using the LiCor Image Studio software, normalizing to β-Actin, and calculating relative fold change compared to nontreated samples. Antibodies used included phospho-STAT3 (Y705) (Cell Signaling Technology, Danvers, MA; cat. no. 9145), phospho-AKT (S473) (Cell Signaling Technology, Danvers, MA; cat. no. 4060), phospho-JNK ([…]/[…]) (Cell Signaling Technology, Danvers, MA; cat. no. 4668), phospho-ERK (T202/Y204) (Cell Signaling Technology, Danvers, MA; cat. no. 9101), β-Actin (Cell Signaling Technology; cat. no. 3700), and donkey antirabbit IRDye 800CW (LiCor, Lincoln, NE; Cat# 925-32213).
Compound,"Relative pSTAT3 Levels (Table 1, SMI-10A-10J) [1]",Kd (OSM),"Relative pSTAT3 Levels (Table 2, SMI-10B analogs) [1]",Inhibition of OSM-mediated signaling cascades by immunoblot (words) [2],Inhibition of OSM-mediated signaling cascades by immunoblot (words) ([2]; listed as 10B8)
"COC(=O)c1cc(-c2ccc3c(c2)OCO3)c(-c2ccc3c(c2)OCO3)o1 [SMI-10A, Methyl 4,5-Bis(benzo[d][1,3]dioxol-5-yl)furan-2-carboxylate]",84.7%,29.6 ± 5.6 µM,–,–,–
"COc1ccc(-c2cc(/C=C/C(=O)O)oc2-c2ccc(OC)c(OC)c2)cc1OC [SMI-10B1, (E)-3-(4,5-Bis(3,4-dimethoxyphenyl)furan-2-yl)acrylic Acid]",–,18.4 ± 1.3 µM,62.35%,–,–
"COc1ccc(-c2cc(/C=C/C(=O)O)oc2-c2ccc(OC)c(O)c2)cc1O [SMI-10B2, (E)-3-(4,5-Bis(3-hydroxy-4-methoxyphenyl)furan-2-yl)acrylic Acid]",–,17.5 ± 1.2 µM,56.66%,–,–
"COc1cc(-c2cc(/C=C/C(=O)O)oc2-c2ccc(O)c(OC)c2)ccc1O [SMI-10B3, (E)-3-(4,5-Bis(4-hydroxy-3-methoxyphenyl)furan-2-yl)acrylic Acid]",–,18.5 ± 1.7 µM,67.12%,–,–
"O=C(O)/C=C/c1cc(-c2ccc3c(c2)OCO3)c(-c2ccc3c(c2)OCO3)s1 [SMI-10B4, (E)-3-(4,5-Bis(benzo[d][1,3]dioxol-5-yl)thiophen-2-yl)acrylic Acid]",–,21.2 ± 1.8 µM,17.98%,–,–
"O=C(O)/C=C/c1cc(-c2ccc3c(c2)OCO3)c(-c2ccc3c(c2)OCO3)[nH]1 [SMI-10B5, (E)-3-(4,5-Bis(benzo[d][1,3]dioxol-5-yl)-1H-pyrrol-2-yl)acrylic Acid]",–,9.2 ± 1.2 µM,19.89%,–,–
"Cn1c(/C=C/C(=O)O)cc(-c2ccc3c(c2)OCO3)c1-c1ccc2c(c1)OCO2 [SMI-10B6, (E)-3-(4,5-Bis(benzo[d][1,3]dioxol-5-yl)-1-methyl-1H-pyrrol-2-yl)acrylic Acid]",–,10 ± 1 µM,20.43%,–,–
"O=C(O)/C=C/c1cc(-c2ccc3c(c2)OCCO3)c(-c2ccc3c(c2)OCCO3)o1 [SMI-10B7, (E)-3-(4,5-Bis(2,3-dihydrobenzo[b][1,4]dioxin-6-yl)furan-2-yl)acrylic Acid]",–,6.6 µM and 6.64 µM,73.96%,–,–
"O=C(O)/C=C/c1cc(-c2ccccc2)c(-c2ccc3c(c2)OCO3)o1 [SMI-10B8, (E)-3-(5-(Benzo[d][1,3]dioxol-5-yl)-4-phenylfuran-2-yl)acrylic Acid]",–,7.2 ± 0.8 µM,81.66%,most effective,"better at inhibiting pSTAT3, pAKT, pJNK, and pERK signaling"
"O=C(O)/C=C/c1cc(-c2ccc3c(c2)OCO3)c(-c2ccccc2)o1 [SMI-10B9, (E)-3-(4-(Benzo[d][1,3]dioxol-5-yl)-5-phenylfuran-2-yl)acrylic Acid]",–,18.2 ± 2 µM,30.98%,–,–
"O=C(O)/C=C/c1cc(-c2ccccc2)c(-c2ccccc2)o1 [SMI-10B10, (E)-3-(4,5-Diphenylfuran-2-yl)acrylic Acid]",–,20.7 ± 1.9 µM,46.10%,–,–
"O=C(O)/C=C/c1ccc(-c2ccc3c(c2)OCO3)o1 [SMI-10B11, (E)-3-(5-(Benzo[d][1,3]dioxol-5-yl)furan-2-yl)acrylic Acid]",–,20.1 ± 1.5 µM,42.43%,–,–
"O=C(O)/C=C/c1cc(-c2ccc3c(c2)OCO3)co1 [SMI-10B12, (E)-3-(4-(Benzo[d][1,3]dioxol-5-yl)furan-2-yl)acrylic Acid]",–,66.7 ± 5.8 µM,34.26%,"most effective; also recorded: better at inhibiting pSTAT3, pAKT, pJNK, and pERK signaling",–
"O=C(O)CCc1cc(-c2ccc(F)c(F)c2)c(-c2ccc3c(c2)OCO3)o1 [SMI-10B15, 3-(5-(Benzo[d][1,3]dioxol-5-yl)-4-(3,4-difluorophenyl)furan-2-yl)propanoic Acid]",–,8.9 ± 2 µM,75.05%,–,–
"O=C(O)CCc1cc(-c2cncnc2)c(-c2ccc3c(c2)OCO3)o1 [SMI-10B16, 3-(5-(Benzo[d][1,3]dioxol-5-yl)-4-(pyrimidin-5-yl)furan-2-yl)propanoic Acid]",–,16.5 ± 5.2 µM,41.62%,–,–
"COc1ccc(-c2cc(CCC(=O)O)oc2-c2ccc3c(c2)OCO3)cc1 [SMI-10B17, 3-(5-(Benzo[d][1,3]dioxol-5-yl)-4-(4-methoxyphenyl)furan-2-yl)propanoic acid]",–,34.5 ± 6.9 µM,86.51%,–,–
"O=C(O)CCc1cc(-c2ccc(Cl)c(Cl)c2)c(-c2ccc3c(c2)OCO3)o1 [SMI-10B18, 3-(5-(Benzo[d][1,3]dioxol-5-yl)-4-(3,4-dichlorophenyl)furan-2-yl)propanoic Acid]",–,13.5 ± 2.5 µM,35.00%,–,–
"OCc1cc(-c2ccc3c(c2)OCO3)c(-c2ccc3c(c2)OCO3)o1 [SMI-10H, (4,5-Bis(benzo[d][1,3]dioxol-5-yl)furan-2-yl)methanol]",61.1%,> 200 µM,–,–,–
"O=C(O)c1cc(-c2ccc3c(c2)OCO3)c(-c2ccc3c(c2)OCO3)o1 [SMI-10I, 4,5-Bis(benzo[d][1,3]dioxol-5-yl)furan-2-carboxylic Acid]",45.9%,46.2 ± 7.2 µM,–,–,–
